# Results published in patent publication US7713969B2, “Compositions and methods for treatment of cancer” (ArQule, Inc., priority 2005, dated 2010).
# Legend:
# HT29 = experiment: Cell viability MTS assay; type: cell-based, human
# Protocol: (§1) Cell viability was determined by measuring the activity of dehydrogenase enzymes in metabolically active cells using a tetrazolium compound, MTS. The assay was performed as described in Promega Technical Bulletin No. 169 (CellTiter 96 Aqueous Non-Radioactive Cell Proliferation Assay). Thirteen human cancer cell lines were assayed (see, e.g., Table 1). Cells were maintained at 37° C., 5% CO2. Adherent cells were maintained DMEM media (4.5 g/L glucose) supplemented with 15% heat-inactivated FBS, 10 mM L-glutamine, and 10 mM Hepes pH 7.5. Suspension cells were maintained in RPMI 1640 media, supplemented with 10% heat-inactivated FBS and 10 mM Hepes pH 7.5. Briefly, cells were seeded in 96-well plates as set forth in Table 1 and incubated for 16-24 hours. Candidate compounds were serially diluted in DMSO, further diluted in cell culture media, and then added to cells (final DMSO concentration of 0.33%). Cells were incubated in the presence of candidate compound for 72 hours. MTS stock solution (MTS 2 gm/L, PMS […] in PBS) was added to the cells (final concentration MTS […] and PMS 7.67 mg/L) and incubated for 4 hours. SDS was added to a final concentration of 1.4% and absorbance at 490 nm was measured within two hours using a platereader. The IC50 was defined as the concentration of compound that results in a 50% reduction in the number of viable cells as compwered to control wells treated with DMSO only (0.33%) and was calculated using non-linear regression analyswas. IC50 values were given in Table 2 for the compounds listed.
# MDA-MB-231 = experiment: Cell viability MTS assay; type: cell-based, human
# Protocol: as §1
# NCI-H446 = experiment: Cell viability MTS assay; type: cell-based, human
# Protocol: as §1
# NCI-H69 = experiment: Cell viability MTS assay; type: cell-based, human
# Protocol: as §1
# NCI-H82 = experiment: Cell viability MTS assay; type: cell-based, human
# Protocol: as §1
# A549 = experiment: Cell viability MTS assay; type: cell-based, human; conditions: 72 hours with compound
# Protocol: as §1
# HCT-116 = experiment: Cell viability MTS assay; type: cell-based, human; conditions: 72 hours with compound
# Protocol: as §1
# K562 = experiment: Cell viability MTS assay; type: cell-based, human; conditions: 72 hours with compound
# Protocol: as §1
# MCF7 = experiment: Cell viability MTS assay; type: cell-based, human; conditions: 72 hours with compound
# Protocol: as §1
# PC-3 = experiment: Cell viability MTS assay; type: cell-based, human; conditions: 72 hours with compound
# Protocol: as §1
# SK-MEL-28 = experiment: Cell viability MTS assay; type: cell-based, human; conditions: 72 hours with compound
# Protocol: as §1
# SKOV-3 = experiment: Cell viability MTS assay; type: cell-based, human; conditions: 72 hours with compound
# Protocol: as §1
# MDA-MB-231 cells = experiment: Colony counting, surviving fraction (Example 78); type: cell-based, human; conditions: two days incubation, colonies counted two weeks later; read-out: IC50 (surviving fraction equaled 50)
# Protocol: MDA-MB-231 cells (ATCC# HTB-26), grown in DMEM plus 15% heat inactivated fetal bovine serum plus 10 mM HEPES pH 7.5, were plated in 60 mm plates (2×10^5 cells per plate). After two days candidate compounds in DMSO at various concentrations were diluted in media and added to individual plates such that the final DMSO concentration in the cell culture media was 0.1%. After two days incubation the culture was trypsinized, cells were washed with media, counted using a hemocytometer and 500 cells, including cell bodies, were plated in […] in media. Two weeks later the media was removed and the cell colonies were fixed with methanol for 10 minutes, stained with 1% crystal violet 10 minutes, washed with water and air dried. Cell colonies were visually counted when there were greater then 50 cells present per colony. Plating efficiency was defined as the average number of colonies formed divided by 500. The surviving fraction was defined as the plating efficiency of a candidate compound divided by the plating efficiency of DMSO multiplied by 100. For candidate compound titrations, the IC50 concentration was determined by fitting the equation y=AeBx to the data points and extrapolating the concentration where surviving fraction equaled 50. […]
# [1] = Homo sapiens, HT-29, 72 hours with compound
# [2] = Homo sapiens, MDA-MB-231, 72 hours with compound
# [3] = Homo sapiens, NCI-H446, 72 hours with compound
# [4] = Homo sapiens, NCI-H82, 72 hours with compound
IC50 (HT29; 72 hours with compound),IC50 (MDA-MB-231; 72 hours with compound),IC50 (NCI-H446; 72 hours with compound),IC50 (NCI-H69; 72 hours with compound),IC50 (NCI-H82; 72 hours with compound),IC50 (HT29; [1]),IC50 (MDA-MB-231; [2]),melting point,Molecule,also measured
18.3 µM,19.9 µM,9.82 µM,4.45 µM,7.25 µM,,,,"O=C1NC(=O)[C@@H](c2cn3c4c(cccc24)CCC3)[C@@H]1c1cccs1 (racemic) [Example 47, (±)-Trans-3-(5,6-dihydro-4H-pyrrolo[3,2,1-ij]quinolin-1yl)-4-(2-thiophen-2-yl)pyrrolidine-2,5-dione]",
,,,,,8.51 µM,4.56 µM,,"O=C1NC(=O)[C@@H](c2cn3c4c(cccc24)CCC3)[C@@H]1c1ccccc1Cl (racemic) [Example 50, (±)-Trans-3-(5,6-dihydro-4H-pyrrolo[3,2,1-ij]quinolin-1yl)-4-(2-chlorophenyl)-pyrrolidine-2,5-dione]","IC50 (NCI-H446; [3]): 4.22 µM; IC50 (NCI-H69; Homo sapiens, NCI-H69, 72 hours with compound): 5.41 µM; IC50 (NCI-H82; [4]): 4.65 µM"
,,,,,,67.3 µM,,"Cn1cc([C@@H]2C(=O)NC(=O)[C@H]2c2cn3c4c(cccc24)CCC3)c2ccccc21 (racemic) [Example 51, (±)-Trans-3-(5,6-dihydro-4H-pyrrolo[3,2,1-ij]quinolin-1yl)-4-(N-methylindol-3-yl)pyrrolidine-2,5-dione]",IC50 (NCI-H446; [3]): 65.7 µM; IC50 (NCI-H82; [4]): 37.7 µM
,,,,,3.06 µM,14.7 µM,87 to 91 °C,"COc1cccc([C@@H]2C(=O)NC(=O)[C@H]2c2cn3c4c(cccc24)CCC3)c1 (racemic) [Example 68, (±)-Trans-3-(5,6-dihydro-4H-pyrrolo[3,2,1-ij]quinolin-1-yl)-4-(3-methoxyphenyl)pyrrolidine-2,5-dione]",
,,,,,55.4 µM,65.9 µM,108 to 110 °C,"O=C1NC(=O)[C@@H](c2cn3c4c(cccc24)CCC3)[C@@H]1c1cccc(O)c1 (racemic) [Example 69, (±)-Trans-3-(5,6-dihydro-4H-pyrrolo[3,2,1-ij]quinolin-1-yl)-4-(3-hydroxyphenyl)pyrrolidine-2,5-dione]",
,,,,,> 100 µM,> 100 µM,105 to 107 °C,"O=C1NC(=O)[C@@H](c2cn3c4c(cccc24)CCC3)[C@@H]1c1ccc(O)cc1 (racemic) [Example 72, (±)-Trans-3-(5,6-dihydro-4H-pyrrolo[3,2,1-ij]quinolin-1-yl)-4-(4-hydroxyphenyl)pyrrolidine-2,5-dione]",
5.5 µM,3.69 µM,1.27 µM,1.85 µM,1.49 µM,,,,"O=C1NC(=O)[C@@H](c2cn3c4c(cccc24)CCC3)[C@H]1c1c[nH]c2ccccc12 [3(R),4(S)-3-(5,6-dihydro-4H-pyrrolo[3,2,1-ij]quinolin-1-yl)-4(1H-indol-3-yl)pyrrolidine-2,5-dione]",
9.71 µM,5.17 µM,1.42 µM,2.07 µM,1.77 µM,,,,"O=C1NC(=O)[C@@H](c2c[nH]c3ccccc23)[C@H]1c1cn2c3c(cccc13)CCC2 [3(S),4(R)-3-(5,6-dihydro-4H-pyrrolo[3,2,1-ij]quinolin-1-yl)-4(1H-indol-3-yl)pyrrolidine-2,5-dione]",
30.1 µM,26.8 µM,8.55 µM,10.5 µM,9.83 µM,,,,"O=C1NC(=O)[C@@H](c2cn3c4c(cccc24)CCC3)[C@@H]1c1c[nH]c2ccccc12 [(+)-3(S),4(R)-3-(5,6-dihydro-4H-pyrrolo[3,2,1-ij]quinolin-1-yl)-4(1H-indol-3-yl)pyrrolidine-2,5-dione]",IC50 (A549): 27.9 µM; IC50 (HCT-116): 14.4 µM; IC50 (K562): 4.52 µM; IC50 (MCF7): > 100 µM; IC50 (PC-3): 18.7 µM; IC50 (SK-MEL-28): 25.5 µM; IC50 (SKOV-3): 4.45 µM; IC50 (MDA-MB-231 cells): 4.1 µM
,,,,,35 µM,60.8 µM,99 to 101 °C,"COc1cccc(C2=C(c3cn4c5c(cccc35)CCC4)C(=O)NC2=O)c1 [Example 65, 3-(5,6-dihydro-4H-pyrrolo[3,2,1-ij]quinolin-1-yl)-4-(3-methoxyphenyl)-1H-pyrrole-2,5-dione]",
,,,,,> 100 µM,> 100 µM,262 to 265 °C,"O=C1NC(=O)C(c2cn3c4c(cccc24)CCC3)=C1c1ccc(OCc2ccccc2)cc1 [Example 66, 3-[4-(benzyloxy)phenyl]-4-(5,6-dihydro-4H-pyrrolo[3,2,1-ij]quinolin-1-yl)-1H-pyrrole-2,5-dione]",
66.8 µM,,,37.7 µM,,,,,"(±)-Trans-3-(5,6-dihydro-4H-pyrrolo[3,2,1-ij]quinolin-1yl)-4-(N-methylindol-3-yl)pyrrolidine-2,5-dione [Example 51]",
